Like-named read-outs stand apart in the source and are kept apart here.
Key:
Assay type in all cases: cell-based
[1] = test system: clinical isolates of multi-drug resistant bacterial pathogens including A. baumannii, MRSA, P. aeruginosa, and CRE; assay: MIC secondary panel, overall statement; settings: read-out: minimum inhibitory concentration (MIC) values
Description: (§1) Minimum inhibitory concentrations for representative example compounds herein were determined by a broth microdilution method in accordance with the Clinical and Laboratory Standards Institute (CLSI) guidelines. In brief, organism suspensions were adjusted to a 0.5 McFarland standard to yield a final inoculum between 3×10^5 and 7×10^5 colony-forming units (CFU)/mL. The inoculum was prepared by suspension of a colony from an agar plate that was prepared the previous day. Compound dilutions and inoculum were prepared in sterile, cation adjusted Mueller-Hinton Broth (Beckton Dickinson).
(§2) Bacteria were suspended in sterile saline and added to each assay plate to obtain a final concentration of 5×10^5 CFU/mL. An inoculum volume of 100 μL was added to wells containing 100 μL of broth with 2-fold serial dilutions of the test compound. All inoculated microdilution trays were incubated in ambient air at 35° C. for 18-24 hours. Following incubation, the lowest concentration of the compound that prevented visible growth (OD 600 nm<0.05) is recorded was the MIC. […] Performance of the assay was monitored by the use of laboratory quality-control strains and a standard compound with a defined MIC spectrum (neomycin), in accordance with CLSI guidelines.
Several compounds of the disclosure (Compounds 1, 2, 3, and 6) were further evaluated against a secondary panel of clinical isolates of multi-drug resistant bacterial pathogens including A. baumannii, methicillin-resistant Staphylococcus aureus (MRSA), P. aeruginosa, and carbapenem-resistant Enterobacteriaceae (CRE).

K. aerogenes = assay: MIC broth microdilution (CLSI); settings: Klebsiella aerogenes; strain AEAE1042, MDR Clinical isolate (CDC CRE panel), CDC AR Bank 0161
Description: as §1, §2

K. pneumoniae = assay: MIC broth microdilution (CLSI)
Description: as §1, §2

P. aeruginosa [2] = assay: MIC broth microdilution (CLSI); settings: Pseudomonas aeruginosa
Description: as §1, §2

C. freundii = assay: MIC broth microdilution (CLSI); settings: Citrobacter freundii, read-out: Activity (MIC)
Description: as §1, §2

E. coli = assay: MIC broth microdilution (CLSI); settings: Escherichia coli
Description: as §1, §2

P. mirabilis = assay: MIC broth microdilution (CLSI); settings: Proteus mirabilis; strain APMI1048, MDR Clinical isolate (CDC CRE panel), CDC AR Bank 0159
Description: as §1, §2

[3] = test system: all sets of organisms tested (SENTRY clinical isolates); assay: Antibacterial surveillance, overall statement; settings: all sets of organisms tested (Table 3); read-out: MIC50,90 values
Description: as §1, §2
Several compounds of the disclosure (Compound 1, 2, and 3) were further evaluated against several hundred bacterial isolates (isolated in the United States and Europe, 1:1) selected from the SENTRY Antimicrobial Surveillance Program (JMI Laboratories, North Liberty, Iowa). The set of clinical isolates included 300 randomly selected Enterobacterales, 103 randomly selected P. aeruginosa, 100 randomly selected A. baumannii-calcoaceticus, 20 randomly selected Methicillin-sensitive S. aureus (MSSA), and 30 randomly selected Methicillin-resistant S. aureus (MRSA). In addition, 101 Enterobacterales and 50 P. aeruginosa isolates with genetically defined mechanisms of aminoglycoside resistance were included. […]

[4] = test system: A. baumannii-calcoaceticus; assay: Antibacterial surveillance of clinical isolates (MIC50/90); settings: 100 isolates
Description: as §1, §2
(§3) Several compounds of the disclosure (Compound 1, 2, and 3) were further evaluated against several hundred bacterial isolates (isolated in the United States and Europe, 1:1) selected from the SENTRY Antimicrobial Surveillance Program (JMI Laboratories, North Liberty, Iowa). The set of clinical isolates included 300 randomly selected Enterobacterales, 103 randomly selected P. aeruginosa, 100 randomly selected A. baumannii-calcoaceticus, 20 randomly selected Methicillin-sensitive S. aureus (MSSA), and 30 randomly selected Methicillin-resistant S. aureus (MRSA). In addition, 101 Enterobacterales and 50 P. aeruginosa isolates with genetically defined mechanisms of aminoglycoside resistance were included. The MIC values at which ≥50% (MIC50) and ≥90% (MIC90) of isolates within a given set are inhibited were determined for each compound against each set of organisms.

P. aeruginosa [5] = assay: as above; settings: Pseudomonas aeruginosa, 103 isolates
Description: as §1, §2, §3

Enterobacterales = assay: as above
Description: as §1, §2, §3

[6] = test system: AG-resistant Enterobacterales; assay: as above
Description: as §1, §2, §3

[7] = test system: Methicillin-resistant S. aureus (MRSA); assay: as above; settings: Staphylococcus aureus, MRSA, 30 isolates
Description: as §1, §2, §3

[8] = test system: AG-resistant P. aeruginosa; assay: as above; settings: Pseudomonas aeruginosa, 50 isolates with defined aminoglycoside resistance
Description: as §1, §2, §3

[9] = test system: Methicillin-sensitive S. aureus (MSSA); assay: as above; settings: Staphylococcus aureus, MSSA, 20 isolates
Description: as §1, §2, §3

Question: What does the source list for `NCC[C@H](O)C(=O)N[C@@H]1[C@@H](O)[C@H](N)[C@@H](O[C@H]2O[C@H](CN)CC[C@H]2N)[C@H](O[C@@H]2O[C@H](CO)[C@@H](O[C@H]3O[C@@H](CN)[C@@H](O)[C@H](O)[C@H]3N)[C@H]2O)[C@H]1O` [Compound 2, (S)-4-amino-N-((1R,2S,3S,4R,5R,6S)-3-amino-5-(((2S,3R,4S,5R)-4-(((2R,3R,4R,5S,6S)-3-amino-6-(aminomethyl)-4,5-dihydroxytetrahydro-2H-pyran-2-yl)oxy)-3-hydroxy-5-(hydroxymethyl)tetrahydrofuran-2-yl)oxy)-4-(((2R,3R,6S)-3-amino-6-(aminomethyl)tetrahydro-2H-pyran-2-yl)oxy)-2,6-dihydroxycyclohexyl)-2-hydroxybutanamide]?
Answer: MIC [1]: ≤ 16 mg/L; MIC (K. aerogenes): < 16 mg/L; MIC (K. pneumoniae; Klebsiella pneumoniae, strain AKPN1246, MDR Clinical isolate (CDC CRE panel), CDC AR Bank 0139): < 16 mg/L; Activity (MIC) (K. pneumoniae; strain AKPN1250, MDR Clinical isolate (CDC CRE panel), CDC AR Bank 0143): + (MIC threshold for positive activity (+) is ≤16 μg/mL); Activity (MIC) (K. pneumoniae; strain AKPN1253, MDR Clinical isolate (CDC CRE panel), CDC AR Bank 0148): + (MIC threshold for positive activity (+) is ≤16 μg/mL); Activity (MIC) (K. pneumoniae; strain AKPN1255, MDR Clinical isolate (CDC CRE panel), CDC AR Bank 0153): + (MIC threshold for positive activity (+) is ≤16 μg/mL); MIC (P. aeruginosa [2]; read-out: Activity (MIC), strain NPAE0006, Efflux KO, Aph(3')-IIb): < 16 mg/L; MIC (P. aeruginosa [2]; read-out: Activity (MIC), strain NPAE0010, MexXY over-expressed, Aph(3')-IIb): < 16 mg/L; MIC (P. aeruginosa [2]; read-out: Activity (MIC), strain NPAE1288, MDR Clinical isolate): < 16 mg/L; MIC (P. aeruginosa [2]; read-out: Activity (MIC), strain NPAE1293, MDR Clinical isolate): < 16 mg/L; MIC (P. aeruginosa [2]; read-out: Activity (MIC), strain NPAE1299, MDR Clinical isolate): < 16 mg/L; MIC (P. aeruginosa [2]; read-out: Activity (MIC), strain NPAE1302, MDR Clinical isolate): < 16 mg/L; MIC (P. aeruginosa [2]; read-out: Activity (MIC), strain NPAE1303, MDR Clinical isolate): < 16 mg/L; MIC (P. aeruginosa [2]; read-out: Activity (MIC), strain NPAE1308, MDR Clinical isolate): < 16 mg/L; MIC (P. aeruginosa [2]; read-out: Activity (MIC), strain NPAE1310, MDR Clinical isolate): < 16 mg/L; MIC (P. aeruginosa [2]; read-out: Activity (MIC), strain NPAE1313, MDR Clinical isolate): < 16 mg/L; MIC (P. aeruginosa [2]; read-out: Activity (MIC), strain NPAE1316, MDR Clinical isolate): < 16 mg/L; MIC (P. aeruginosa [2]; read-out: Activity (MIC), strain NPAE1323, MDR Clinical isolate): < 16 mg/L; MIC (P. aeruginosa [2]; strain NPAE0001, WT Aph(3')-IIb, QC, read-out: Activity (MIC)): < 16 mg/L; MIC (P. aeruginosa [2]; strain NPAE0002, WT Aph(3')-IIb, read-out: Activity (MIC)): < 16 mg/L; MIC (P. aeruginosa [2]; strain NPAE0359, aph(3')-IIb KO (tetR), read-out: Activity (MIC)): < 16 mg/L; MIC (C. freundii): < 16 mg/L; MIC (E. coli; read-out: Activity (MIC), strain AECO1225, MDR Clinical isolate (CDC CRE panel), CDC AR Bank 0118): < 16 mg/L; MIC (E. coli; read-out: Activity (MIC), strain AECO1226, MDR Clinical isolate (CDC CRE panel), CDC AR Bank 0119): < 16 mg/L; MIC (E. coli; read-out: Activity (MIC), strain AECO1227, MDR Clinical isolate (CDC CRE panel), CDC AR Bank 0128): < 16 mg/L; MIC (E. coli; read-out: Activity (MIC), strain NECO0003, ΔtolC): < 16 mg/L; MIC (E. coli; read-out: Activity (MIC), strain NECO0245, ArmA): < 16 mg/L; MIC (E. coli; strain NECO0001, WT QC, read-out: Activity (MIC)): < 16 mg/L; MIC (E. coli; strain NECO0002, WT, read-out: Activity (MIC)): < 16 mg/L; MIC (E. coli; strain NECO0243, empty vector, read-out: Activity (MIC)): < 16 mg/L; MIC (E. coli; strain NECO0244, AAC(6')-Ib, read-out: Activity (MIC)): < 16 mg/L; MIC (E. coli; strain NECO0289, APH(3')-Ia, read-out: Activity (MIC)): < 16 mg/L; MIC (E. coli; strain NECO0302, AAC(3)-IIa, read-out: Activity (MIC)): < 16 mg/L; MIC (E. coli; strain NECO0350, AAC(2')-I, read-out: Activity (MIC)): < 16 mg/L; MIC (E. coli; strain NECO0359, ANT(4')-Ia, read-out: Activity (MIC)): < 16 mg/L; MIC (P. mirabilis): < 16 mg/L; MIC50 [3]: ≤ 16 mg/L; MIC50 ([4]; read-out: MIC50): < 16 mg/L; MIC90 ([4]; read-out: MIC90): < 16 mg/L; MIC50 (P. aeruginosa [5]; read-out: MIC50): < 16 mg/L; MIC90 (P. aeruginosa [5]; read-out: MIC90): < 16 mg/L; MIC50 (Enterobacterales): < 16 mg/L; MIC90 (Enterobacterales): < 16 mg/L; MIC50 [6]: < 16 mg/L; MIC90 [6]: < 16 mg/L; MIC50 ([7]; read-out: MIC50): < 16 mg/L; MIC90 ([7]; read-out: MIC90): < 16 mg/L; MIC50 ([8]; read-out: MIC50): < 16 mg/L; MIC90 ([8]; read-out: MIC90): < 16 mg/L; MIC50 ([9]; read-out: MIC50): < 16 mg/L; MIC90 ([9]; read-out: MIC90): < 16 mg/L

— patent publication US20250032524A1, “BROAD SPECTRUM AMINOGLYCOSIDES AND USES THEREOF” (REVAGENIX, INC., priority 2022, published 2025)
